Results reported in the supplement of paper PMC10883282.

What was measured:
Experiment in all cases: relative viability vs DMSO control (72 h) (fraction); higher = more viable cells
SYO-1 = tested on: SYO-1
Procedure, shortened: (§1)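 ATPLite readings, expressed as percent growth and averaged over up to triplicate wells, provided relative viability. Before reading, sarcoma cell lines seeded in 384-well plates to reach 80–90% confluence received 2.5 µl of serially diluted compound after 24 h, from source plates of 10 mM to 0.0002 mM. Plates were held 72 h at 37 °C, 5% CO2, with 0.1% DMSO as vehicle and a 5 µM positive control. The data were rescaled to 1 for full and 0 for none.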

A204 = tested on: A204
Procedure, shortened: as §1

SW982 = tested on: SW982
Procedure, shortened: as §1

HS729 = tested on: HS729
Procedure, shortened: as §1

KHOS-240S = tested on: KHOS-240S
Procedure, shortened: as §1

CN(C)C/C=C/C(=O)Nc1cc2c(Nc3ccc(F)c(Cl)c3)ncnc2cc1O[C@H]1CCOC1 [Afatinib]
relative viability
Conditions | A204 | HS729 | KHOS-240S | SW982 | SYO-1
0.00017 µM | 0.993 | 1.07 | 1.06 | 1.017 | 1.03
0.00051 µM | 1 | 0.975 | 1.06 | 1.03 | 1.01
0.00152 µM | 1.03 | 0.989 | 1.07 | 1.03 | 0.979
0.00457 µM | 0.976 | 0.953 | 1.08 | 1.06 | 0.949
0.01372 µM | 1.01 | 0.958 | 1.06 | 1.05 | 0.957
0.04115 µM | 0.945 | 0.968 | 1.04 | 1.02 | 0.946
0.1235 µM | 0.859 | 0.937 | 1.03 | 0.914 | 0.903
0.3704 µM | 0.595 | 0.802 | 0.991 | 0.659 | 0.838
1.111 µM | 0.34 | 0.667 | 0.715 | 0.286 | 0.5276
3.333 µM | 0.175 | 0.529 | 0.402 | 0.183 | 0.00877
10 µM | 0.00583 | 0.007367 | 0.0697 | 0.219 | -0.00643

COc1cc(Nc2ncc3c(n2)-c2ccc(Cl)cc2C(c2c(F)cccc2OC)=NC3)ccc1C(=O)O [Alisertib]
relative viability
Conditions | A204 | HS729 | KHOS-240S | SW982 | SYO-1
0.00017 µM | 1.07 | 0.938 | 1.04 | 1.01 | 0.934
0.00051 µM | 1.073 | 0.943 | 1.04 | 1.01 | 0.9195
0.00152 µM | 1.07 | 0.932 | 1.03 | 1.03 | 0.903
0.00457 µM | 1.03 | 0.888 | 1.01 | 1.02 | 0.863
0.01372 µM | 1.07 | 0.859 | 0.996 | 1.03 | 0.826
0.04115 µM | 1.06 | 0.879 | 0.884 | 0.968 | 0.783
0.1235 µM | 0.882 | 0.793 | 0.807 | 0.583 | 0.618
0.3704 µM | 0.796 | 0.77 | 0.758 | 0.464 | 0.459
1.111 µM | 0.768 | 0.733 | 0.739 | 0.37 | 0.371
3.333 µM | 0.7276 | 0.689 | 0.681 | 0.348 | 0.355
10 µM | 0.711 | 0.716 | 0.622 | 0.361 | 0.3041

CCS(=O)(=O)N1CC(CC#N)(n2cc(-c3ncnc4[nH]ccc34)cn2)C1 [Baricitinib]
relative viability
Conditions | A204 | HS729 | KHOS-240S | SW982 | SYO-1
0.00017 µM | 1.06 | 0.937 | 1.035 | 0.981 | 0.994
0.00051 µM | 1.04 | 0.97 | 1.022 | 0.983 | 1.01
0.00152 µM | 1.05 | 0.999 | 1.037 | 0.976 | 1.01
0.00457 µM | 1.05 | 0.996 | 1.04 | 0.985 | 0.994
0.01372 µM | 1.03 | 1 | 1.03 | 1.0047 | 0.999
0.04115 µM | 1.04 | 0.959 | 1.019 | 0.98 | 0.993
0.1235 µM | 1.02 | 0.94 | 1.05 | 0.987 | 0.988
0.3704 µM | 1.01 | 0.9518 | 1.03 | 0.993 | 0.985
1.111 µM | 0.971 | 0.926 | 1.04 | 0.98 | 0.988
3.333 µM | 0.934 | 0.9194 | 0.958 | 0.966 | 0.952
10 µM | 0.83 | 0.87 | 0.7777 | 0.748 | 0.897

COc1cc(N2CCC(N3CCN(C)CC3)CC2)ccc1Nc1ncc(Cl)c(Nc2ccccc2P(C)(C)=O)n1 [Brigatinib]
relative viability
Conditions | A204 | HS729 | KHOS-240S | SW982 | SYO-1
0.00017 µM | 1.06 | 0.91 | 1.04 | 1.03 | 0.95
0.00051 µM | 1.08 | 0.925 | 1.04 | 1.03 | 0.952
0.00152 µM | 1.03 | 0.933 | 1.02 | 1.03 | 0.922
0.00457 µM | 1.06 | 0.909 | 1.01 | 1.01 | 0.889
0.01372 µM | 1.04 | 0.858 | 0.989 | 0.954 | 0.846
0.04115 µM | 1.03 | 0.771 | 0.978 | 0.869 | 0.768
0.1235 µM | 1.06 | 0.685 | 0.92 | 0.695 | 0.706
0.3704 µM | 0.991 | 0.595 | 0.754 | 0.383 | 0.501
1.111 µM | 0.692 | 0.417 | 0.445 | 0.122 | 0.239
3.333 µM | 0.262 | 0.199 | 0.0468 | 0.00817 | 0.0457
10 µM | 0.0135 | 0.0341 | 0.0051 | 0.00797 | -0.0131
